Results taken from patent publication US9302993B2, “8-hydroxy quinoline derivatives” (PRANA BIOTECHNOLOGY LIMITED, priority 2002, dated 2016).
Where two headings read alike, the source gives them in different places.

How the values were obtained:
Neuronal cortical cells = assay: Assay for test compound cytoxicity, MTS (Assay 3(d)); type: cell-based, mouse
Protocol: (§1) Media was then replaced with Neurobasal media (Invitrogen Life Technologies) and B27 supplements (Invitrogen Life Technologies). Cultures were maintained at 37° C. in 5% CO2. Prior to experimentation, the culture medium was replaced with Neurobasal media and B27 minus antioxidants (Invitrogen Life Technologies).
Cell viability is determined using the MTS assay. Culture medium is […] replaced with fresh neurobasal medium plus B27 supplements minus antioxidants. 1/10th volume MTS solution (Cell Titre 96 Aqueous One, Promega Corporation) and incubated at 37° C., 2 hrs. 200 microliter aliquots are measured with a spectrophotometer at 560 nm.
(d) Assay for Test Compound Cytoxicity
Neuronal cortical cells were cultured for five days as per Assay 2 in NB media and B27 supplement.
On day six the test compounds were added to the neuronal cell cultures in NB media and B27 supplement minus antioxidants.
Test compounds were dissolved in 100% DMSO to a concentration of 2.5 mM (10 mM if excess compound was weighed out per vial—then diluted to 2.5 mM). […] Test compounds were not added directly to cells, instead they were added to a 48 well ‘Drug Plate’ as comprised below:
(§2) The Drug Plate was incubated at 37° C. for 15 mins. 200 ul of each well was added in triplicate to the corresponding cell plate. The cell plate was incubated at 37 C, for 4 days.
On completion of the assay, 1/10 volume MTS was added per well of plate (ie 25 ul/250 ul). The plates were incubated at 37 C for 2 hrs, and then absorbance was read at 560 nm.

[1] = system: Aβ in extract of tissue from post mortem human AD brain; assay: Human brain amyloid solubilisation assay (Assay 9, BAS); type: biochemical
Protocol: Assay 9. Human Brain Amyloid Solubilisation Assay
This assay was performed in order to assess the ability of a test compound to mobilise Aβ from the insoluble to the soluble phase of an extract of tissue from post mortem human AD brain.
Up to 0.5 g of plaque-bearing cortex without meninges was homogenized using a DIAX 900 homogenizer (Heudolph and Co, Kelheim, Germany) or other suitable device for three 30-second periods at full speed in 2 ml of ice-cold phosphate-buffered saline, pH 7.4. To obtain the phosphate-buffered saline-extractable fraction, the homogenate was centrifuged at 100,000×g for 30 min and the supernatant removed. Alternatively, the tissue was freeze dried then pulverised to form a powder which was then weighed out into aliquots for extraction as above. Supernatant, either freeze-dried and resuspended or in unconcentrated form, was dissolved in 200 μl of Tris-Tricine sodium dodecyl sulfate (SDS) sample buffer pH 8.3 containing 8% SDS, 10% 2-mercaptoethanol. Aliquots (10 μl) were then boiled for 10 minutes before SDS-polyacrylamide gel electrophoresis. The insoluble fraction of the cortical samples was obtained by resuspending the initial pelleted sample in 1 ml of phosphate-buffered saline. A 50-μl aliquot of this suspension was then boiled in […] of sample buffer as above.
Tris-Tricine polyacrylamide gel electrophoresis was performed by loading appropriately diluted samples on to 10% to 20% gradient gels (Novex, San Diego, Calif.) followed by transfer on to 0.2-μm nitrocellulose membrane (Bio-Rad, Hercules, Calif.). Aβ was detected by using monoclonal antibody W02, which detects residues 5 through 8, […] (or another suitable antibody) in conjunction with horseradish peroxidase-conjugated rabbit anti-mouse IgG (Dako, Denmark), and visualized by using enhanced chemiluminescence (eg ECL; Amersham Life Science, Buckinghamshire, UK). Each gel included three lanes containing 0.5, 1, and 2 ng of synthetic Aβ40 (Keck Laboratory, Yale University, New Haven, Conn.) as reference standards.
Blot films were scanned by using a suitable imaging system such as the UVP gel documentation system, and densitometry performed using suitable software, eg UVP Labworks. The dynamic range of the film/scanner was determined by using a step tablet (No. 911ST600, Kodak, Rochester N.Y.), a calibrated film exposed by the manufacturer to provided steps of known increasing intensity. The quantifiable range of signal intensity for densitometric analysis of the mono- and dimeric Aβ bands was based on the comparison with a curve obtained by scanning and densitometry of the step tablet.
All samples were analysed at least twice, and gel loadings and dilutions were adjusted to fit within the quantifiable region of the standard curve. […] The insoluble Aβ being comprised of the pelletable fraction derived from the insoluble amyloid plaque from the above cortical samples and the soluble fraction comprising monomeric and/or oligomeric soluble Aβ.

[2] = system: Neuronal cortical cells treated with Aβ1-42; assay: Assay for Aβ neurotoxicity and Aβ neuroprotection (Assay 3(c)); type: cell-based, mouse; conditions: 20 uM Aβ1-42, 4 days, MTS
Protocol: as §1
(c) Assay for Aβ Neurotoxicity and Aβ Neuroprotection
Neuronal cortical cells were cultured for five days as per Assay 2. On day six the neurobasal (NB) media (Invitrogen Life Technologies) and B27 supplement (Invitrogen Life Technologies) were replaced with NB media and B27 supplement (no antioxidants). On day six, test compounds were individually added to the neuronal cell cultures:
Aβ was initially dissolved in 20 mM NaOH to a concentration of 1 mM and sonicated for 5 minutes. The peptide was then diluted in H2O and 10×PBS to a final concentration of 200 uM Aβ in 1×PBS. The peptide was again sonicated for 5 minutes and then spun at 14000 rpm for 5 min and transferred to a fresh tube.
The test compounds were dissolved in 100% DMSO to a concentration of 2.5 mM (10 mM if excess compound was weighed out per vial—then diluted to 2.5 mM). […] Test compounds were not added directly to cells, instead they were added to a 48 well ‘Drug Plate’ as comprised below:
as §2
On the 4th day after treating the cells the assay is completed by adding MTS to the cells.

[3] = target: T1, hydrogen peroxide generation by Aβ in the presence of copper (Homo sapiens, UniProt P05067); assay: Fluorometric H2O2 assay (Assay 1); type: biochemical; conditions: Aβ 1-42 with Cu-Gly, DCF/HRP, 37 C 60 min; several values in one cell = repeat determinations; read-out: Peroxide IC50
T1 construct: The reaction solutions contained Aβ 1-42 at concentrations in the range of 50 nM to 1 μM
T1 sequence (P05067 672-713 limits assumed): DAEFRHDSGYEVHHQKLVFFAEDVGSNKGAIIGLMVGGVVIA
Protocol: Assay 1. Fluorometric H2O2 Assay
A fluorometric assay was used to test the ability of a test compound to inhibit hydrogen peroxide generation by Aβ in the presence of copper based on dichlorofluoroscein diacetate (DCF; Molecular Probes, Eugene Oreg.). The DCF solution (5 mM) in 100% dimethyl sulphoxide (previously purged with argon for 2 hr at 20° C.) was deacetylated in the presence of 0.25M NaOH for 30 min and neutralised at pH 7.4 to a final concentration of 1 mM. Horseradish peroxidase (HRP) stock solution was prepared to 1 μM at pH 7.4. The reactions were carried out in PBS, pH 7.4 in a 96 well plate (total volume=250 μl/well). The reaction solutions contained Aβ 1-42 at concentrations in the range of 50 nM to 1 μM, copper-glycine chelate (Cu-Gly), was prepared by adding CuCl2 to glycine in the ratio of 1:6 and added to the Aβ in the proportion 2Cu-Gly: 1Aβ), reducing agents including dopamine (5 μM) or ascorbic acid, deacetylated DCF 100 μM, and HRP, 0.1 μM. […] The reaction mixture was incubated at 37 C for 60 min. […] H2O2 concentration may be established by comparing fluorescence with the H2O2 standards. Inhibition of AB H2O2 production was assayed by including a given concentration of test compound(s) in the test wells.

[4] = BL6J×129sv, mouse, 4 days, 1 uM
[5] = BL6J×129sv, mouse, 4 days, 10 uM
[6] = solubilising plaques relative to PBS

SMILES	Test Compound Cytoxicity 1 uM (Neuronal cortical cells; [4])	Test Compound Cytoxicity 10 uM (Neuronal cortical cells; [5])	BAS Score [1, 6]	% inhibition Abeta toxicity [2] [%]	Test Compound Cytoxicity 0.1 um (Neuronal cortical cells; BL6J×129sv, mouse, 4 days) [%]	Viable 10 uM (Neuronal cortical cells; [5])	IC50 [3] [nM]	Cell viability (% viable cells, MTS) (Neuronal cortical cells; 1 uM, 4 days, in %)	Viable 10 uM (Neuronal cortical cells; 10 uM test compound, repeated lines = repeat determinations, in %)	Cell viability (% viable cells, MTS) (Neuronal cortical cells; 10 uM, 4 days, in %)	Cell viability (% viable cells, MTS) (Neuronal cortical cells; 0.1 um, 4 days) [%]	BAS Score [1]
Oc1cccc2ccc(-c3ccccn3)nc12 [compound 1006]	92	52	++	7								
Oc1ccccc1-c1cc(Cl)c2cccnc2c1O [compound 947]	94	51	+	3	100	70.4						
Oc1cccc2ccc(CN(CCc3c[nH]cn3)Cc3ccccn3)nc12 [compound 1009]	94	32		16			320					
Oc1cccc2ccc(CN(CCc3c[nH]cn3)Cc3nccs3)nc12 [compound 1002]	82	34		17			390					
Oc1cccc2cccnc12 [compound 42]				14				87	97.66	79	90	+
Oc1c(-c2ccccc2C(F)(F)F)cc(Cl)c2cccnc12 [compound 864]	88	37	+	13	100	93.12						
NCc1ccc2cccc(O)c2n1 [compound 968]	87	82	++	6	103	97.12						
CN(CCc1ccccn1)Cc1ccc2cccc(O)c2n1 [compound 990]	88	57	+	18	95	57.45						
Oc1cccc2ccc(CN(CCc3c[nH]cn3)Cc3c[nH]cn3)nc12 [compound 1008]	86	28		9			260					
Nc1ccccc1NC(=O)c1cc(O)c2cccc(O)c2n1 [compound 986]	85	60	+	7	96	81.73						
O=C(c1ccc2cccc(O)c2n1)N(Cc1ccccn1)Cc1ccccn1 [compound 1020]	85	83		4			1300					
Oc1c(Br)cc(-c2cc(F)cc(F)c2)c2cccnc12 [compound 853]	79	39	+	31	93	94.79						
Cc1cc(C)c2cccnc2c1O [compound 59]	97	55	+	22	89							
O=C(CNC(=O)c1cc(O)c2cccc(O)c2n1)NCCc1c[nH]cn1 [compound 987]	90	87	+	5	92	89.03						
Oc1cccc2ccc(CN(Cc3ccccn3)Cc3c[nH]cn3)nc12 [compound 1011]	89	31		21			320					
O/N=C/c1ccc2c(Cl)cc(Cl)c(O)c2n1 [compound 1031]	85	81		8			760					
CN(c1ccccn1)c1ccc2c(Cl)cc(Cl)c(O)c2n1 [compound 1056, 5,7-Dichloro-8-hydroxy-2-(methyl-pyridin-2-yl-amino)-quinoline]	96.44	68.25		39		68.25	690					
O/N=C/c1ccc2cccc(O)c2n1 [compound 969, 8-Hydroxy-quinoline-2-carboxaldehyde Oxime]	92	90	+	2	91	94.55						
Cc1cccc(-c2ccc3cccc(O)c3n2)n1 [compound 1007]	90	43		9			580					
NC(=O)c1ccc2c(Cl)cc(Cl)c(O)c2n1 [compound 1037]	88	87		4			> 10000					
